{
  "source": "patent EP1175509B1",
  "about": "(priority 1999, dated 2000)",
  "assay_type_in_all_cases": "biochemical",
  "conditions_in_all_cases": "pH 8",
  "key": {"FBS-AChE, soluble": {"target": "T1, FBS-AChE, soluble (Bos taurus, UniProt P23795)", "T1 sequence (P23795 31-613)": "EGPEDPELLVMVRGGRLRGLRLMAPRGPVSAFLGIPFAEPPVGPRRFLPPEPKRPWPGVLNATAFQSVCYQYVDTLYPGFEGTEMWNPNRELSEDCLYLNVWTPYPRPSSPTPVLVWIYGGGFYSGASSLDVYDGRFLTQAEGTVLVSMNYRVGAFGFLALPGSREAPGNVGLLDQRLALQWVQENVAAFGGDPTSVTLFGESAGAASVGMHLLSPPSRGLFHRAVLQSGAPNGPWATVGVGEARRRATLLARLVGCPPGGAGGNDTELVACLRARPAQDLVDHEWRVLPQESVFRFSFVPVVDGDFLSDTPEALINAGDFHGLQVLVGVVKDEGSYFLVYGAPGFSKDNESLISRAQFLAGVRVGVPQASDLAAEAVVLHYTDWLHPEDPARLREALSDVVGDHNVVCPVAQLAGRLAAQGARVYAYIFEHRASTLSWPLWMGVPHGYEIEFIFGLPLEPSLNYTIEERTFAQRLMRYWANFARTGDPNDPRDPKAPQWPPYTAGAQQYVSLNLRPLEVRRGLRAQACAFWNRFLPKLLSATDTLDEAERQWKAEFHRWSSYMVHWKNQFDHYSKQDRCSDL"}, "[1]": {"target": "T2, FBS-AChE, immobilized (polyurethane coupled) (Bos taurus, UniProt P23795)", "T2 sequence (P23795 31-613)": "T1 sequence (P23795 31-613)"}, "Equine-BChE, soluble": {"target": "Equine-BChE, soluble (Equus caballus, UniProt P81908)", "sequence (P81908 whole entry)": "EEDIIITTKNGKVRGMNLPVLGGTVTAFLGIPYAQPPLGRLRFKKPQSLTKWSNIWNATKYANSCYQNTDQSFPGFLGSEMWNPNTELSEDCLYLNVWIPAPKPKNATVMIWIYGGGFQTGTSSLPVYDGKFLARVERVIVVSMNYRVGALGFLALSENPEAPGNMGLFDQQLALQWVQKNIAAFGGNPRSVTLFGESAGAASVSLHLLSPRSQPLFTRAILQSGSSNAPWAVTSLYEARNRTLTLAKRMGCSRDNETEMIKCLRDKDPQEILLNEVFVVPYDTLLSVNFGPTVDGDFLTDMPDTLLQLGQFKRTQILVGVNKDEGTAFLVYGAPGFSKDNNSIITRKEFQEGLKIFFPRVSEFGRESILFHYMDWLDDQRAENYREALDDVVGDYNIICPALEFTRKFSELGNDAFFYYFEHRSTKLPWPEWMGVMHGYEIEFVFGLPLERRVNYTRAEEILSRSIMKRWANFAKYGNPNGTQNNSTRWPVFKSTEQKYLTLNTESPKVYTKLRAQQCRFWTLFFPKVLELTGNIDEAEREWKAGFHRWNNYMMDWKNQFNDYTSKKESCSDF"}, "[2]": {"target": "Equine-BChE, immobilized (polyurethane coupled) (Equus caballus, UniProt P81908)", "sequence (P81908 whole entry)": "as above"}},
  "data": [
    {"smiles": "CC(=O)SCC[N+](C)(C)C.[I-]", "note": "[acetylthiocholine, Acetylthiocholine iodide]", "values": [
      {"measurement": "Kcat", "setting": "FBS-AChE, soluble", "result": 4670, "unit": "s⁻¹"},
      {"measurement": "Km", "setting": "FBS-AChE, soluble", "result": 119, "unit": "µM"},
      {"measurement": "Kss", "setting": "FBS-AChE, soluble", "result": 18, "unit": "mM"},
      {"measurement": "Kcat", "setting": "[1]", "result": 983, "unit": "s⁻¹"},
      {"measurement": "Km", "setting": "[1]", "result": 1090, "unit": "µM"},
      {"measurement": "Kss", "setting": "[1]", "result": 22, "unit": "mM"}
    ]},
    {"smiles": "CCCC(=O)SCC[N+](C)(C)C.[I-]", "note": "[butyrylthiocholine, S-butyrylthiocholine iodide]", "values": [
      {"measurement": "B", "setting": "Equine-BChE, soluble", "result": 1.8},
      {"measurement": "Kcat", "setting": "Equine-BChE, soluble", "result": 517, "unit": "s⁻¹"},
      {"measurement": "Km", "setting": "Equine-BChE, soluble", "result": 127, "unit": "µM"},
      {"measurement": "Kss", "setting": "Equine-BChE, soluble", "result": 1.5, "unit": "mM"},
      {"measurement": "Kcat", "setting": "[2]", "result": 300, "unit": "s⁻¹"},
      {"measurement": "Km", "setting": "[2]", "result": 1200, "unit": "µM"},
      {"measurement": "Kss", "setting": "[2]", "result": 16, "unit": "mM"}
    ]}
  ]
}
